According to US8501813B2, “γ-secretase inhibitor” (Kabushiki Kaisha Yakult Honsha, priority 2007, dated 2013):

Tests used:
γ-secretase [1] = biological target: T1, γ-secretase (Homo sapiens, UniProt P49768); assay: Substrate specificity: FLAG-Aβ secretion by HEK293 cells transfected with FLAG APP C99, anti-FLAG immunoprecipitation/western blot; assay type: cell-based; settings: 0.2 μmol/L; for activity at 0.2 µM: HEK293, 24 h, FLAG APP C99, negative control = 100%, read-out: (i) Aβ secretion rate of HEK293 cells
Protocol: (§1) Of families constituting human Alcadein (hereinafter, referred to as Alc) known as a substrate for γ-secretase to colocalize with APP in brain neurons, an artificial Alcα fragment (hereinafter, referred to as Alcα C150) whose first extracellular cleavage site and γ-secretase cleavage site were determined was used to study the substrate specificity of the γ-secretase inhibitor of the present invention. β-Alcα produced from a first cleavage construct of Alcα cannot be quantified by sELISA used in Aβ measurement. Therefore, proteins with an attached FLAG tag at the N termini of first cleavage constructs of Alcα and of C99 were expressed by cells. FLAG-Aβ-like peptides secreted into a medium were collected by immunoprecipitation using anti-FLAG antibodies and detected by western blotting using the antibodies. A specific method thereof is shown below.
(§2) HEK293 cells (ATCC) (1×10^7 cells/10 cm dish) cultured in 6 ml of 10% FCS-containing DMEM (Wako Pure Chemical Industries, Ltd.) were transfected with FLAG APP C99 pcDNA3.1 (the nucleotide sequence of its coding region is shown in SEQ ID NO: 2) (J. Biol. Chem., 2003, 278, 49448-49458 (which was prepared from pcDNA3-APPC99)) or with FLAG Alcα C150 pcDNA3.1 (the nucleotide sequence of its coding region is shown in SEQ ID NO: 3) (J. Biol. Chem., 2004, 279, 24343-24354 (which was the same as pcDNA3AlcαΔE)) using Lipofectamine 2000 (Invitrogen Corp.) according to the protocol included in the reagent. Each inhibitor and a positive control (γ-Secretase Inhibitor IX (DAPT)) (Calbiochem Contact Information) were separately added at a concentration of 0.2 or 2 μmol/L. The same dose of DMSO (Wako Pure Chemical Industries, Ltd.) thereas was added as a negative control. 24 hours later, the culture supernatants were collected, and samples were preliminarily purified using beads (100 μL of 50% (v/v) Protein-G Sepharose (GE Healthcare)). Then, 15 μL of 50% (v/v) anti-FLAG antibody M2 beads (Sigma-Aldrich Corp.) were added thereto, and the samples were incubated at 4° C. for 1 hour. The beads were collected by centrifugation and washed three times with a buffer (10 mM Tris-HCl [pH 8.0], 140 mM NaCl, 0.1% n-octyl glucoside, 0.025% sodium azide), and Aβ and β-Alcα in the medium were collected. The proteins were subjected to SDS-PAGE using a 15% Tris-Tricine gel (Anal Biochem., 1987, 166 (2), 368-379) and then transferred to a membrane. The membrane was boiled for 5 minutes in PBS. Then, anti-FLAG M2 antibodies (5 μg/ml) (Sigma-Aldrich Corp.) were added thereto, and the membrane was incubated, followed by detection using a western blotting detection reagent ECL (GE Healthcare). This signal was quantified using Versa-doc system (Bio-Rad Laboratories, Inc.) to calculate protein secretion rates (the protein secretion rate of the negative control is defined as 100%).

γ-secretase [2] = biological target: T1, γ-secretase; assay: Substrate specificity: β-Alcα secretion by HEK293 cells transfected with FLAG Alcα C150, anti-FLAG immunoprecipitation/western blot; assay type: cell-based; settings: 0.2 μmol/L; for activity at 0.2 µM: HEK293, 24 h, FLAG Alcα C150, negative control = 100%, read-out: (ii) β-Alcα secretion rate of HEK293 cells
Protocol: as §1, §2

## CSCCC(NC(=O)C(NC(=O)C(CC(C)C)CC(O)C(NC(=O)OC(C)(C)C)C(C)O)C(C)C)C(=O)NCc1ccccc1 [TLVM-5, [5S-(tert-butoxycarbonylamino)-4R,6R-dihydroxy-2R-(2-methylpropyl)heptanoyl]-L-valyl-L-methionine benzylamide]
γ-secretase [1]
  (i)/(ii) ratio, Aβ / β-Alcα secretion rates: 0.29
  cleavage of APP-C99, in words: specifically inhibited
  activity at 0.2 µM: 41%
γ-secretase [2]
  γ cleavage of the Alcα-C150, in words: did not inhibit
  activity at 0.2 µM: 140%

## CSCCC(NC(=O)C(NC(=O)C(CC(C)C)CC(O)C(NC(=O)OC(C)(C)C)C(C)O)C(C)C)C(=O)NCc1ccc(F)cc1 [TLVM-9, [5S-(tert-butoxycarbonylamino)-4R,6R-dihydroxy-2R-(2-methylpropyl)heptanoyl]-L-valyl-L-methionine 4-fluorobenzylamide]
γ-secretase [1]
  (i)/(ii) ratio, Aβ / β-Alcα secretion rates: 0.27
  cleavage of APP-C99, in words: specifically inhibited
  activity at 0.2 µM: 43%
γ-secretase [2]
  γ cleavage of the Alcα-C150, in words: did not inhibit
  activity at 0.2 µM: 158%

## CSCCC(NC(=O)C(NC(=O)C(CC(C)C)CC(O)C(NC(=O)OC(C)(C)C)C(C)O)C(C)C)C(=O)NC(C)c1ccccc1 [TLVM-8, [5S-(tert-butoxycarbonylamino)-4R,6R-dihydroxy-2R-(2-methylpropyl)heptanoyl]-L-valyl-L-methionine (S)-α-methylbenzylamide]
γ-secretase [1]
  (i)/(ii) ratio, Aβ / β-Alcα secretion rates: 0.27
  cleavage of APP-C99, in words: specifically inhibited
  activity at 0.2 µM: 32%
γ-secretase [2]
  γ cleavage of the Alcα-C150, in words: did not inhibit
  activity at 0.2 µM: 118%

## CCCCNC(=O)C(CCSC)NC(=O)C(NC(=O)C(CC(C)C)CC(O)C(NC(=O)OC(C)(C)C)C(C)O)C(C)C [TLVM-7, [5S-(tert-butoxycarbonylamino)-4R,6R-dihydroxy-2R-(2-methylpropyl)heptanoyl]-L-valyl-L-methionine n-butylamide]
γ-secretase [1]
  (i)/(ii) ratio, Aβ / β-Alcα secretion rates: 0.30
  cleavage of APP-C99, in words: specifically inhibited
  activity at 0.2 µM: 36%
γ-secretase [2]
  γ cleavage of the Alcα-C150, in words: did not inhibit
  activity at 0.2 µM: 120%
